One assay has as its target human thrombin (Homo sapiens, UniProt P00734). The assay can be described thus: Chromogenic thrombin inhibition assay (substrate S-2238). It counts as biochemical. The settings on record: purified human thrombin, chromogenic substrate S-2238 83 μM, 37° C., mean of duplicates.
Assay [1] concerns the target T1, human coagulation factor Xa (Homo sapiens, UniProt P00742).
T1 construct: purchased Enzyme Research Laboratories HFXa
The assay can be described thus: Chromogenic F Xa inhibition assay (substrate S-2765). The note with it: purified human factor Xa, chromogenic substrate S-2765 62.5 μM, 37° C., mean of duplicates. Format: biochemical.

The text below walks through data of US8378092B2, “Chlorothiophene-amides as inhibitors of coagulation factors Xa and thrombin” (Sanofi, priority 2008, dated 2013).

Where a name gives a salt, the structure may show the parent alone.

T1 sequence (P00742 235-488 limits assumed): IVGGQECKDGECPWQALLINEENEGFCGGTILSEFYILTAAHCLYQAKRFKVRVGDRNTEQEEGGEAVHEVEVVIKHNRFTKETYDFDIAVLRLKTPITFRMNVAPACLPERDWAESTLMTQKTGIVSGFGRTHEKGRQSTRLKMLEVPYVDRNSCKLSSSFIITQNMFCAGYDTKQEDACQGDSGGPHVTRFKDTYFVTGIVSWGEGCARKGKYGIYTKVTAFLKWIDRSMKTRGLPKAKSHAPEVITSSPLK
T1 sequence (P00742 41-179 partner limits assumed): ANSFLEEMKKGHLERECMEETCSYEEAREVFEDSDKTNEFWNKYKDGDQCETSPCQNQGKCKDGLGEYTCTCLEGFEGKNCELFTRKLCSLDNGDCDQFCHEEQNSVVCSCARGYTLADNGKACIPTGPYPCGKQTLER

The term IC50 denotes the concentration that inhibits the measured activity by half. Lower therefore signals greater potency in that assay. Take `CCc1c(N2CCOCC2=O)cccc1S(=O)(=O)N[C@@H](CNC(=O)c1csc(Cl)c1)C(=O)N1CCOC[C@@H]1C` [Example 2, 5-Chloro-thiophene-3-carboxylic acid [(S)-2-[2-ethyl-3-(3-oxo-morpholin-4-yl)-benzenesulfonylamino]-3-((S)-3-methyl-morpholin-4-yl)-3-oxo-propyl]-amide]: the IC50 is 250 nM on human thrombin and 9.8 nM in assay [1].
The corresponding values for `CCc1c(N2CCOCC2=O)cccc1S(=O)(=O)N[C@@H](CNC(=O)c1ccc(Cl)s1)C(=O)N1CCO[C@H](C)C1` [Example 3, 5-Chloro-thiophene-2-carboxylic acid [(S)-2-[2-ethyl-3-(3-oxo-morpholin-4-yl)-benzenesulfonylamino]-3-((R)-2-methyl-morpholin-4-yl)-3-oxo-propyl]-amide] are 55 nM and 1.48 nM.
In the same order, the values of `CCc1c(N2CCOCC2=O)cccc1S(=O)(=O)N[C@@H](CNC(=O)c1ccc(Cl)s1)C(=O)N1CCC[C@@H](OC)C1` [Example 4, 5-Chloro-thiophene-2-carboxylic acid [(S)-2-[2-ethyl-3-(3-oxo-morpholin-4-yl)-benzenesulfonylamino]-3-((R)-3-methoxy-piperidin-1-yl)-3-oxo-propyl]-amide] are 61 nM and 2.8 nM.
In the case of `O=C(NC[C@H](NS(=O)(=O)c1cccc(N2CCOCC2=O)c1Cl)C(=O)N1CCCCCC1)c1ccc(Cl)s1` [Example 5, 5-Chloro-thiophene-2-carboxylic acid {(S)-3-azepan-1-yl-2-[2-chloro-3-(3-oxo-morpholin-4-yl)-benzenesulfonylamino]-3-oxo-propyl}-amide], the results for the half-maximal inhibitory concentration (IC50) (against human thrombin; in assay [1]) were 49 nM and 9.8 nM, respectively.
For `COc1c(N2CCOCC2=O)cc(F)cc1S(=O)(=O)N[C@@H](CNC(=O)c1ccc(Cl)s1)C(=O)N1CCCCCC1` [Example 6, 5-Chloro-thiophene-2-carboxylic acid {(S)-3-azepan-1-yl-2-[5-fluoro-2-methoxy-3-(3-oxo-morpholin-4-yl)-benzenesulfonylamino]-3-oxo-propyl}-amide], the values for the 50% inhibitory concentration (IC50) (at human thrombin; in assay [1]) were 5.64 nM and 0.88 nM, respectively.
The corresponding values for `O=C(NC[C@H](NS(=O)(=O)c1cccc(N2CCCCC2=O)c1C(F)(F)F)C(=O)N1CCN(C2CC2)CC1)c1ccc(Cl)s1` [Example 7, 5-Chloro-thiophene-2-carboxylic acid {(S)-3-(4-cyclopropyl-piperazin-1-yl)-3-oxo-2-[3-(2-oxo-piperidin-1-yl)-2-trifluoromethyl-benzenesulfonylamino]propyl}amide trifluoroacetate] are 222 nM and 1.02 nM.
As to `O=C(NC[C@H](NS(=O)(=O)c1cccc(N2CCCCC2=O)c1OC(F)F)C(=O)N1CCN(C2CC2)CC1)c1ccc(Cl)s1` [Example 8, 5-Chloro-thiophene-2-carboxylic acid {(S)-3-(4-cyclopropyl-piperazin-1-yl)-2-[2-difluoromethoxy-3-(2-oxo-piperidin-1-yl)-benzenesulfonylamino]-3-oxo-propyl}-amide trifluoroacetate], the IC50 on human thrombin is 10.4 nM; in assay [1], 0.98 nM.
Take `CCOC(=O)C1CCN(C(=O)[C@H](CNC(=O)c2ccc(Cl)s2)NS(=O)(=O)c2cccc(N3CCCCC3=O)c2OC(F)F)CC1` [Example 9, 1-{(S)-3-[(5-Chloro-thiophene-2-carbonyl)-amino]-2-[2-difluoromethoxy-3-(2-oxo-piperidin-1-yl)-benzenesulfonylamino]-propionyl}-piperidine-4-carboxylic acid ethyl ester]: the IC50 at human thrombin came to 10.5 nM; in assay [1], 0.52 nM.
In the same order, the values of `Cc1noc(C2CCN(C(=O)[C@H](CNC(=O)c3ccc(Cl)s3)NS(=O)(=O)c3cccc(N4CCCCC4=O)c3OC(F)F)CC2)n1` [Example 11, 5-Chloro-thiophene-2-carboxylic acid {(S)-2-[2-difluoromethoxy-3-(2-oxo-piperidin-1-yl)-benzenesulfonylamino]-3-[4-(3-methyl-[1,2,4]oxadiazol-5-yl)-piperidin-1-yl]-3-oxo-propyl}amide] are 381 nM and 1.74 nM.
In the same order, the values of `CN1CCN(C(=O)[C@H](CNC(=O)c2ccc(Cl)s2)NS(=O)(=O)c2cc(F)cc(N3CCCC3)c2Cl)CC1` [Example 13, 5-Chloro-thiophene-2-carboxylic acid [(S)-2-(2-chloro-5-fluoro-3-pyrrolidin-1-yl-benzenesulfonylamino)-3-(4-methyl-piperazin-1-yl)-3-oxo-propyl]-amide trifluoro acetate] are 19 nM and 1.44 nM.
In the same order, the values of `O=C(NC[C@H](NS(=O)(=O)c1cccc(N2CCCC2=O)c1Cl)C(=O)N1CCNCC1)c1ccc(Cl)s1` [Example 15, 5-Chloro-thiophene-2-carboxylic acid {(S)-2-[2-chloro-3-(2-oxo-pyrrolidin-1-yl)-benzenesulfonylamino]-3-oxo-3-piperazin-1-yl-propyl}-amide] are 658 nM and 1.32 nM.
On to `COCCN1CCN(C(=O)[C@H](CNC(=O)c2ccc(Cl)s2)NS(=O)(=O)c2cc(F)cc(N3CCCC3=O)c2C)CC1` [Example 16, 5-Chloro-thiophene-2-carboxylic acid {(S)-2-[5-fluoro-2-methyl-3-(2-oxo-pyrrolidin-1-yl)-benzenesulfonylamino]-3-[4-(2-methoxy-ethyl)-piperazin-1-yl]-3-oxo-propyl}-amide trifluoro acetate], for which the concentration for half-maximal inhibition (IC50) worked out at 54 nM on human thrombin and 1.3 nM in assay [1].
Take `CN1CCN(C(=O)[C@H](CNC(=O)c2ccc(Cl)s2)NS(=O)(=O)c2cccc(N3CCCC3=O)c2C(F)F)CC1` [Example 17, 5-Chloro-thiophene-2-carboxylic acid [(S)-2-[2-difluoromethyl-3-(2-oxo-pyrrolidin-1-yl)-benzenesulfonylamino]-3-(4-methyl-piperazin-1-yl)-3-oxo-propyl]-amide trifluoro acetate]: the IC50 came to 28 nM at human thrombin and 1.81 nM in assay [1].
As to `Cc1c(N2CCCC2=O)cccc1S(=O)(=O)N[C@@H](CNC(=O)c1ccc(Cl)s1)C(=O)N1CCc2sccc2C1` [Example 154, 5-Chloro-thiophene-2-carboxylic acid {(S)-3-(6,7-dihydro-4H-thieno[3,2-c]pyridin-5-yl)-2-[2-methyl-3-(2-oxo-pyrrolidin-1-yl)-benzenesulfonylamino]-3-oxo-propyl}-amide], the figures for the IC50 (against human thrombin; in assay [1]) were 3.48 nM and 1.92 nM, respectively.
The corresponding values for `O=C(NC[C@H](NS(=O)(=O)c1cc(F)cc(N2CCCCC2=O)c1Cl)C(=O)N1CCN(CC(F)(F)F)CC1)c1ccc(Cl)s1` [Example 183, 5-Chloro-thiophene-2-carboxylic acid {(S)-2-[2-chloro-5-fluoro-3-(2-oxo-piperidin-1-yl)-benzenesulfonylamino]-3-oxo-3-[4-(2,2,2-trifluoro-ethyl)-piperazin-1-yl]-propyl}-amide] are 40 nM and 0.4 nM.
The corresponding values for `Cc1c(N2CCCC2=O)cc(F)cc1S(=O)(=O)N[C@@H](CNC(=O)c1ccc(Cl)s1)C(=O)N1CCN(C)CC1` [Example 202, 5-Chloro-thiophene-2-carboxylic acid [(S)-2-[5-fluoro-2-methyl-3-(2-oxo-pyrrolidin-1-yl)-benzenesulfonylamino]-3-(4-methyl-piperazin-1-yl)-3-oxo-propyl]-amide] are 27 nM and 1.31 nM.
